# Test results from patent publication US20200246284A1 (Academia Sinica, priority 2015, published 2020).
# “And” between values parts separate entries of the source, which are not always exact repeats. Identical values can stand only once.
# Key:
# SUDHL-6 = conditions: human
# Description: (§1) After 72 hours, the cultures were pulsed with Alamar Blue overnight, and the fluorescent intensity of resulted cultures was measured by a Synergy H1 plate-reader (BioTek Inc).
# [1] = Pharmacokinetics, single IV 1 mg/kg or oral 10 mg/kg; assay type: in vivo, Sprague Dawley rats; conditions: for oral absorption: 10 mg/kg
# Description: A single intravenous dose was administered via an indwelling catheter in the jugular vein to a group of 2 male rats at a dose level of 1.0 mg/kg. The formulations were prepared as a solution in 5.0% w/v DMSO with 10% w/v Cremophor in distilled water. […] The formulations were prepared as a solution in 0.5% w/v CMC in distilled water. Serial blood samples were collected from the jugular vein catheter up to 24 h post-dose from all animals in groups.
# in vitro = conditions: human, plasma
# JEKO-1 = assay: Cytotoxicity mantle cell lymphoma
# Description: as §1
# U2932 = conditions: human
# Description: as §1
# SHP77 = assay: Cytotoxicity LCLC/SCLC; assay type: cell-based, human
# [2] = tested on: nude mice bearing prostate 22Rv/HL2 tumor xenografts; assay: Pathological examination of organs and body weight, 22Rv/HL2 xenograft mice
# AML cell lines = assay: Cytotoxicity, panel of AML cell lines; assay type: cell-based, human
# Description: Human cord blood CD34+ cells transduced with MLL-AF9 gene: MA-10, MA-18. Human bone marrow CD34+ cells transduced with MLL-AF9 gene: MA-23. Human cord blood CD34+ cells transduced with MLL-AF9 and N-ras genes: MA-9.3, MA-9.6. • b) Growth factor independent leukemic cell lines. Human MA-10 cells transduced with Flt3 ITD (W51) were adapted to in vitro proliferation without growth factors (Moore Laboratory).
# Ly18 = assay: Cytotoxicity DLBCL; conditions: read-out: cytotoxicity IC50; LY18, DLBCL GCB
# Description: as §1
# ICR mice = assay: Acute intravenous 14-day toxicity; conditions: for Mortality (N/N): 14 days
# [3] = tested on: lymphoma cell lines (DLBCL GBC and ABC, mantle cell lymphoma); assay: Cytotoxicity, panel of lymphoma cell lines (Tables 23, 24, 26); assay type: cell-based; conditions: Homo sapiens
# CCRF-CEM = assay: Cytotoxicity leukemia; assay type: cell-based, human
# Ly19 = assay: cells; conditions: Homo sapiens, read-out: cytotoxicity IC50
# Ly10 = conditions: human
# Description: as §1
# OP9 calvarial stroma = assay: Cytotoxicity normal tissue 72 hr; assay type: cell-based; conditions: OP9 (mouse)
# Z-138 = assay: Combination with BO-1055, MCL (Tables 28, 29); assay type: cell-based, human; conditions: read-out: IC50 single drug
# HBL1 = conditions: human
# Description: as §1
# Karpas-422 = conditions: human
# Description: as §1
# hERG = hERG (Homo sapiens, UniProt Q12809); assay: in vitro
# H211 = assay: Cytotoxicity SCLC 72 hr alamar blue; assay type: cell-based, human
# PC1 (jap) = assay type: cell-based, human
# H209 = assay: Cytotoxicity SCLC 72 hr alamar blue; assay type: cell-based, human
# CL97 = assay type: cell-based, human
# H1975 = assay type: cell-based, human
# EBC1 = assay type: cell-based, human
# H647 = assay type: cell-based, human
# NOSE ovarian epithelium = assay type: cell-based, human
# H562 = assay: Cytotoxicity SCLC 72 hr alamar blue; assay type: cell-based, human
# H226 = assay type: cell-based, human
# H524 = assay: Cytotoxicity SCLC 72 hr alamar blue; assay type: cell-based, human
# CALU-3 = assay type: cell-based, human
# H23 = assay type: cell-based, human
# CL141T = assay type: cell-based, human
# H1703 = assay type: cell-based, human
# H358 = assay type: cell-based, human
# H417 = assay: Cytotoxicity SCLC 72 hr alamar blue; assay type: cell-based, human
# H1666 = assay type: cell-based, human
# Sequence of hERG (Q12809 whole entry): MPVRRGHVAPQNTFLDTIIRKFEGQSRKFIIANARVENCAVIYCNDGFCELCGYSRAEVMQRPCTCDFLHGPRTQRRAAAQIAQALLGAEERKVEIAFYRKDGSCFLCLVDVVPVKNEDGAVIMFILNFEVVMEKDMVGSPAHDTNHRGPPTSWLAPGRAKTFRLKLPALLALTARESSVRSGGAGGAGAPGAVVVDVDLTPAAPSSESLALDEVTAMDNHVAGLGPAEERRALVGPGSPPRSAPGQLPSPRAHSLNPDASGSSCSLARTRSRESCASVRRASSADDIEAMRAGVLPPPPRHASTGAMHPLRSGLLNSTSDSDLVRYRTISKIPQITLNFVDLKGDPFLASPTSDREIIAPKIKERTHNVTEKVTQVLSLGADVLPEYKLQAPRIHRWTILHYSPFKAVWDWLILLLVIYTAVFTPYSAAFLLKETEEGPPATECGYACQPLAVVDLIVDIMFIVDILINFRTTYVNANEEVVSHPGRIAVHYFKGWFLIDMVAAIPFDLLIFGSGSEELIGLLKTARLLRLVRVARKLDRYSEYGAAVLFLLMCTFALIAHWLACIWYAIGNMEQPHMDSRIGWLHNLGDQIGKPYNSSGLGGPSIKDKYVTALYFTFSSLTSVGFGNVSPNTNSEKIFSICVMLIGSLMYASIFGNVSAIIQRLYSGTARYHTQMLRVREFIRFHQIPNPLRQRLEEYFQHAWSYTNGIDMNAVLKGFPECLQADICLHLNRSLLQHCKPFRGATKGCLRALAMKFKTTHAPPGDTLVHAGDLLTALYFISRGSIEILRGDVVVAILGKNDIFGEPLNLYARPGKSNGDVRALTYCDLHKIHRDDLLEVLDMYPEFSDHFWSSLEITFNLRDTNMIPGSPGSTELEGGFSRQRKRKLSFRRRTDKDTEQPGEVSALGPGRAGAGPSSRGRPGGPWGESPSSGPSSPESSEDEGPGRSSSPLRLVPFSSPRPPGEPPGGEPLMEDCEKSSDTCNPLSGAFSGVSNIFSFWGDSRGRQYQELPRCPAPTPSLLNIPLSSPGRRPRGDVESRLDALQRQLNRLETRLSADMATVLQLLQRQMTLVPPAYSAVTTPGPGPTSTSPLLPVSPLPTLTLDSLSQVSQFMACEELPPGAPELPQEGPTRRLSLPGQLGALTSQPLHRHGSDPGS
smiles,measurement,setting,value
"CN(C)CCNC(=O)c1cccc(NC(=O)Nc2ccc(N(CCCl)CCCl)cc2)c1 [BO-1055, Ureidomustine]",IC50,SUDHL-6,5930 nM
same,AUC (0-last),"[1]; IV 1 mg/kg, rat",925.81 ng·h/mL
same,AUC (0-∞),"[1]; IV 1 mg/kg, rat",934.93 ng·h/mL
same,CLss,"[1]; IV 1 mg/kg, rat",18.00 mL/min/kg
same,Vss,"[1]; IV 1 mg/kg, rat",0.15 L/kg
same,t1/2,"[1]; IV 1 mg/kg, rat",34.8 min
same,C0,"[1]; male, Sprague Dawley, plasma, IV 1 mg/kg, rat",12000 ng/mL
same,plasma levels after oral administration,"[1]; oral 10 mg/kg, LLOQ […]",No quantifiable levels
same,oral absorption,"[1]; oral 10 mg/kg, rat",no oral absorption
same,oral absorption,"[1]; oral 10 mg/kg, rat, listed as ureidomustine",No Oral Absorption
same,fraction unbound,in vitro,0.01
same,fraction unbound at 2 h,in vitro,0.01
same,IC50,JEKO-1,270 nM
same,IC50,U2932,2220 nM
same,IC50,SHP77,40000 nM
same,average body-weight,[2]; after cessation of treatment,recovered on day 35-40
same,"pathological change in heart, liver, spleen, lung and kidney",[2]; day 42 after onset of drug administration,no apparent pathological change
same,IC50,"AML cell lines; Homo sapiens, THP1 and MOLM13",180 to 450 nM
same,increase of cytotoxicity by MLL-AF9,AML cell lines; MLL-AF9 transduced vs normal CB or BM CD34+,25-40 fold
same,IC50,Ly18,610 nM
same,Post dosing deaths at >1 hr,ICR mice; 50 mg/kg,0
same,Mortality (N/N),ICR mice; 50 mg/kg i.v.,0/6
same,Post dosing deaths at >1 hr,ICR mice; 60 mg/kg,0
same,Mortality (N/N),ICR mice; 60 mg/kg i.v.,0/6
same,Post dosing deaths at >1 hr,ICR mice; 70 mg/kg,1
same,Mortality (N/N),ICR mice; 70 mg/kg i.v.,1/6
same,Post dosing deaths at >1 hr,ICR mice; 80 mg/kg,6
same,Mortality (N/N),ICR mice; 80 mg/kg i.v.,all mice died and 6/6
same,Post dosing deaths at >1 hr,ICR mice; 100 mg/kg,6
same,Mortality (N/N),ICR mice; 100 mg/kg i.v.,6/6
same,IC50,[3]; lines with WT Bcl2,≥ 120 nM
same,IC50,[3]; two resistant lines,> 10000 nM
same,IC50,CCRF-CEM,130 ± 2 nM
same,IC50,Ly19,290 nM
same,IC50,Ly10,120 nM
same,IC50,OP9 calvarial stroma,≥ 10000 nM
same,IC50,Z-138,299 nM and 303 nM and 301 nM
same,IC50,HBL1,870 nM
same,IC50,Karpas-422,5850 nM
same,IC50,hERG,12600 ± 1640 nM
N.N.[Cl][Pt][Cl] [Cisplatin],IC50,H211,1210 nM
same,IC50,PC1 (jap),≥ 20000 nM
same,IC50,H209,310 nM
same,IC50,CL97,< 15000 nM
same,IC50,H1975,≥ 10000 nM
same,IC50,EBC1,≥ 100000 nM
same,IC50,H647,8750 nM
same,IC50,NOSE ovarian epithelium,≥ 25000 nM
same,IC50,H562,1390 nM
same,IC50,H226,2900 nM
same,IC50,H524,410 nM
same,IC50,CALU-3,≥ 100000 nM
same,IC50,H23,2500 nM
same,IC50,CL141T,2450 nM
same,IC50,H1703,≥ 20000 nM
same,IC50,H358,5900 nM
same,IC50,H417,2010 nM
same,IC50,H1666,≥ 20000 nM
